According to PMC8041284, “Tunable Methacrylamides for Covalent Ligand Directed Release Chemistry” (Journal of the American Chemical Society, 2021):
Read-outs that look alike come from different tables or passages of the source.

Molecular target: BTK (Homo sapiens, UniProt Q06187)
Experiment: biochemical
[1] = read-out: BTK inhibition (%), 0.75 uM BTK, […] probe 3l, 15 min preincubation

Chain of BTK (Q06187 402-655 limits assumed): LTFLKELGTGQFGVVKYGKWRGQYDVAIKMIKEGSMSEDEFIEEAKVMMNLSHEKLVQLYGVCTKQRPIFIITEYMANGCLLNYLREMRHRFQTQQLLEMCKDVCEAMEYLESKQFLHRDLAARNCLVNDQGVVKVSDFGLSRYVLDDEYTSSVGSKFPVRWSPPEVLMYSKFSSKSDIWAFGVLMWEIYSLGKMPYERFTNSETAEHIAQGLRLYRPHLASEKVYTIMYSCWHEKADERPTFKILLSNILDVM

Row | inhibition at 10 µM [1] | SMILES | inhibition at 10 µM (read-out: BTK inhibition (%))
1 | -2.6% | CCn1cc(C(=O)O)c(=O)c2cc(F)c(N3CCNC(C)C3)c(F)c21 (stereo not drawn) [PCM-0065465] | 
2 | -6.9% | CCn1c2ccccc2c2cc(Nc3ccnc(NCCCN4CCOCC4)n3)ccc21 [PCM-0215246] | 
3 | -9.3% | C=CC[S@+]([O-])C[C@H](N)C(=O)O [PCM-0216303] | 
4 | 38.6% | CC#C[C@]1(O)CC[C@H]2[C@@H]3CCC4=CC(=O)CCC4=C3[C@@H](c3ccc(N(C)C)cc3)C[C@@]21C [PCM-0064713] | 
5 | -3.9% | O[C@@H]1CO[C@H]2[C@@H]1OC[C@@H]2O [PCM-0214776] | 
6 | 88.5% | COc1cc(N2CCC(N3CCN(C)CC3)CC2)ccc1Nc1ncc(Cl)c(Nc2ccccc2S(=O)(=O)C(C)C)n1 [PCM-0094890] | 
7 | 22.4% | CO[C@H]1/C=C/O[C@@]2(C)Oc3c(C)c(O)c4c(O)c(cc(O)c4c3C2=O)NC(=O)/C(C)=C\C=C\[C@H](C)[C@H](O)[C@@H](C)[C@@H](O)[C@@H](C)[C@H](OC(C)=O)[C@@H]1C [PCM-0216568] | 
8 | -10.3% | COc1c(C)cnc(Cn2cnc3c(Cl)nc(N)nc32)c1C [PCM-0095047] | 
9 | -3.9% | O=C(Oc1coc(CSc2ncccn2)cc1=O)c1ccc([N+](=O)[O-])cc1 [PCM-0216050] | 
10 | 27.2% | CC1(C)CC[C@]2(C(=O)O)CC[C@]3(C)C(=CC[C@@H]4[C@@]5(C)CC[C@H](O)C(C)(C)[C@@H]5CC[C@]43C)[C@@H]2C1 [PCM-0214680] | 
11 | 6.2% | Cc1ccc(O)c(O)c1 [PCM-0216565] | 
12 | 68.3% | O=C(c1cccc(Cl)c1F)N1CCN(Cc2cccc(Nc3nccs3)n2)CC1 [PCM-0215281] | 
13 | 0.8% | CCCc1nc(C(C)(C)O)c(C(=O)OCc2oc(=O)oc2C)n1Cc1ccc(-c2ccccc2-c2nn[nH]n2)cc1 [PCM-0086318] | 
14 | -12.4% | O=c1sn(-c2cccc3ccccc23)c(=O)n1Cc1ccccc1 [PCM-0095450] | 
15 | 7.7% | CC1=CC(=O)[C@H]2C[C@@H]1C2(C)C [PCM-0216612] | 
16 | -35% | COc1ccc(NS(=O)(=O)c2sc3ccc(Cl)cc3c2C)cc1N1CCNCC1 [PCM-0095497] | 
17 | 13.9% | C[C@@H]1O[C@@H](OC[C@H]2O[C@@H](Oc3cc(O)c4c(=O)cc(-c5ccc(O)cc5)oc4c3)[C@H](O[C@@H]3O[C@@H](C)[C@H](O)[C@@H](O)[C@H]3O)[C@@H](O)[C@@H]2O)[C@H](O)[C@H](O)[C@H]1O [PCM-0216389] | 
18 | 10.3% | CN1CCC(=C2c3ccccc3CC(=O)c3sccc32)CC1 [PCM-0065580] | 
19 | 36.6% | Cc1cc(C#N)cc(C)c1Oc1nc(Nc2ccc(C#N)cc2)nc(N)c1Br [PCM-0095562] | 
20 | 8.5% | Nc1ccc(S(=O)(=O)Nc2cnc3ccccc3n2)cc1 [PCM-0215994] | 
21 | 7.7% | CCOc1ccc(Cc2cc([C@]34OC[C@](CO)(O3)[C@@H](O)[C@H](O)[C@H]4O)ccc2Cl)cc1 [PCM-0216244] | 
22 | 32.7% | CN(C)c1cc(NC(=O)CNC(C)(C)C)c(O)c2c1C[C@H]1C[C@H]3[C@H](N(C)C)C(=O)C(C(N)=O)=C(O)[C@@]3(O)C(=O)C1=C2O [PCM-0214621] | 
23 | 26.3% | CN1CCN(Cc2ccc(NC(=O)Cc3ccc(Oc4cc(NC(=O)C5CC5)ncn4)cc3)cc2C(F)(F)F)CC1 [PCM-0215373] | 
24 | -9.3% | Nc1ccc(S(N)(=O)=O)cc1 [PCM-0086364] | 

Row | inhibition at 10 µM [1] | SMILES | inhibition at 10 µM (read-out: BTK inhibition (%))
25 | 31.9% | COc1cc2c(cc1Cc1cccc(Cl)c1F)c(=O)c(C(=O)O)cn2[C@H](CO)C(C)C [PCM-0095274] | 
26 | 105% | Cc1ccc(C(=O)Nc2ccc(Oc3cc4cnn(C)c4cc3-c3cn[nH]c3)c(F)c2)c(=O)n1-c1ccc(F)cc1 [PCM-0215736] | 
27 | -6.9% | Cc1[nH]c2ccccc2c1CCNC(=O)c1cccs1 [PCM-0095767] | 
28 | 32.7% | C=C1CC[C@H]2C(=C)CC[C@H]3C(=C)C(=O)O[C@@H]3[C@@H]12 [PCM-0214878] | 
29 | -10.1% | CCN(CC)Cc1ccc2cc(COC(=O)Nc3ccc(C(=O)NO)cc3)ccc2c1 [PCM-0095219] | 
30 | 17.2% | CN1CCN(C2CCN(C(=O)Nc3cc(Oc4ccc(NC(=O)C5(C(=O)Nc6ccc(F)cc6)CC5)c(F)c4)ccn3)CC2)CC1 [PCM-0095502] | 
31 | -2.8% | NC1(c2ccc(-c3nc4ccn5c(=O)[nH]nc5c4cc3-c3ccccc3)cc2)CCC1 [PCM-0095042] | 
32 | -13.1% | C=C1CCN([C@H](C)[C@](O)(Cn2cncn2)c2ccc(F)cc2F)CC1 [PCM-0215992] | 
33 | 96.6% | CCOc1cc2ncc(C#N)c(Nc3ccc(F)c(Cl)c3)c2cc1NC(=O)/C=C/CN(C)C [PCM-0095063] | 
34 | 4.8% | CN(C)Cc1ccc(-c2nc3cccc4c3n2CCNC4=O)cc1 [PCM-0095220] | 
35 | 6.2% | CC1=NN(c2ccccc2)C(=O)C1 [PCM-0006147] | 
36 | -6.2% | Cc1nc2cc(F)c(F)cc2n1-c1cncc(Nc2ccc(C(F)(F)F)cc2)n1 [PCM-0215953] | 
37 | 9% | CC[C@]1(O)C[C@H]2CN(CCc3c([nH]c4ccccc34)[C@@](C(=O)OC)(c3cc4c(cc3OC)N(C=O)[C@H]3[C@@](O)(C(=O)OC)[C@H](OC(C)=O)[C@]5(CC)C=CCN6CC[C@]43[C@@H]65)C2)C1 [PCM-0214794] | 
38 | -12.4% | CCCn1c(NC(=O)c2cccc(C(N)=O)c2)nc2ccccc21 [PCM-0215951] | 
39 | 90.3% | C=CC(=O)Nc1cccc(Nc2nc(Nc3ccc(OCCOC)cc3)ncc2F)c1 [PCM-0095787] | 
40 | -4.8% | Cn1cnc(=N)c2[nH]cnc21 [PCM-0095527] | 
41 | 15.6% | COc1cc(NC(=O)c2ccccn2)ccc1Cl [PCM-0095344] | 
42 | -6.9% | O=C(NCc1ccncc1)C12CC3CC(C1)CC(c1ccc(Cl)cc1)(C3)C2 [PCM-0215553] | 
43 | -11.7% | CC(=O)OCC(=O)[C@H]1CC[C@H]2[C@@H]3CCC4=CC(=O)CC[C@]4(C)[C@H]3CC[C@]12C [PCM-0214761] | 
44 | 8.6% | Cc1c(Cc2ccc3ccccc3n2)c2cc(F)ccc2n1CC(=O)O [PCM-0214780] | 
45 | -3.1% | CNC(=O)c1ccc(N2C(=S)N(c3cnc(C#N)c(C(F)(F)F)c3)C(=O)C23CCC3)cc1F [PCM-0095458] | 
46 | -17% | CN[C@@H](C)C(=O)N[C@H](C(=O)N1CCC[C@H]1C(=O)Nc1snnc1-c1ccccc1)C1CCCCC1 [PCM-0215217] | 
47 | 3.9% | O=S(=O)(O)c1cc(O)ccc1O [PCM-0086281] | 
48 | 95.9% | C=CC(=O)Nc1cccc(Sc2nc(Nc3ccc(N4CCN(C)CC4)cc3)ncc2Cl)c1 [PCM-0095052] | 

Row | inhibition at 10 µM [1] | SMILES | inhibition at 10 µM (read-out: BTK inhibition (%))
49 | -8.5% | CCCCc1ccc(O)cc1O [PCM-0216578] | 
50 | 29.3% | O=C(Nc1ccc2c(O)cc(S(=O)(=O)O)cc2c1)Nc1ccc2c(O)cc(S(=O)(=O)O)cc2c1 [PCM-0216169] | 
51 | -14% | CCOC(=O)c1c(C)n(C)c2ccc(O)cc12 [PCM-0095233] | 
52 | -24.1% | CCCOC(C(=O)OC1CCN(C)CC1)(c1ccccc1)c1ccccc1 [PCM-0215115] | 
53 | 3.1% | O=C(Cn1ccnc1[N+](=O)[O-])NCc1ccccc1 [PCM-0214934] | 
54 | -11.6% | CCC(=C(c1ccc(O)cc1)c1ccc(OCCN(C)C)cc1)c1ccccc1 [PCM-0215638] | 
55 | -43.6% | NC(=O)c1[nH]cnc1N [PCM-0214903] | 
56 | 9.3% | CCCCCCCCCCCCCCCCCCCC(=O)O [PCM-0216199] | 
57 | -13.9% | CCCCCCCCC/C(=C\C1=C(C)C(=O)C(OC)=C(OC)C1=O)C(=O)O [PCM-0215484] | 
58 | 8.6% | C[C@@H]1CC[C@H]2[C@@H](C)C(=O)O[C@@H]3O[C@@]4(C)CC[C@@H]1[C@]32OO4 [PCM-0214642] | 
59 | 2.3% | Cc1nc2cccc(N)c2c(=O)n1C1CCC(=O)NC1=O (stereo not drawn) [PCM-0215785] | 
60 | -21.8% | COC(=O)[C@@H]1[C@H]2C[C@H]3c4[nH]c5ccccc5c4CCN3C[C@@H]2CC[C@@H]1O [PCM-0214658] | 
61 | 82.6% | CN(CC(=O)N(Cc1ccc(C2CCCCC2)cc1)c1ccc(C(=O)O)c(O)c1)S(=O)(=O)c1c(F)c(F)c(F)c(F)c1F [PCM-0215770] | 
62 | 5.4% | C[C@H]1O[C@@H](O[C@H]2CC[C@@]3(C)[C@@H](CC[C@]4(C)[C@@H]3C=C[C@]35OC[C@@]6(CCC(C)(C)C[C@H]63)[C@H](O)C[C@]54C)[C@]2(C)CO)[C@H](O)[C@@H](O[C@@H]2O[C@H](CO)[C@@H](O)[C@H](O)[C@H]2O)[C@H]1O [PCM-0216171] | 
63 |  | O=C(O)CCCCCCCCCO [PCM-0216560] | 14.7%
64 | 6.9% | COCCNC(=O)Nc1ccc2nc(-c3cccs3)c(-c3cccs3)nc2c1 [PCM-0215879] | 
65 | 11.1% | COc1cc(O)c2c(c1)C(=O)c1cc(C)cc(O)c1C2=O [PCM-0088700] | 
66 | -4.7% | Nc1nc(N)c2nc(-c3ccccc3)c(N)nc2n1 [PCM-0065015] | 
67 | 60% | O=C(NCCCNc1nc(Nc2cccc(NC(=O)N3CCCC3)c2)ncc1I)c1cccs1 [PCM-0095061] | 
68 | -30.1% | CC(C)CCNc1ncccc1C(=O)N1CCN(Cc2ccccc2)CC1 [PCM-0216256] | 
69 | -2.3% | CN1Cc2c(ccc3c2OCO3)[C@@]2(C)[C@@H](O)Cc3cc4c(cc3[C@@H]12)OCO4 [PCM-0216379] | 
70 | 61.4% | CC(C)(C)c1cc(NC(=O)Nc2ccc(Oc3ccnc4[nH]c(=O)cnc34)cc2F)n(-c2ccccc2)n1 [PCM-0215780] | 
71 | 4.7% | CN(C)c1ccc(C(=O)NCCCCCCC(=O)NO)cc1 [PCM-0095347] | 

Row | SMILES | inhibition at 10 µM [1] | inhibition at 10 µM (read-out: BTK inhibition (%))
72 | COc1ccc2c3c1O[C@H]1C[C@@H](O)C=C[C@@]31CCN(C)C2 [PCM-0086015] | -17.1% | 
73 | CC1(C)CCC[C@](C)([C@H]2CC[C@]3(C)[C@@H]2[C@H](O)C[C@@H]2[C@@]4(C)CC[C@H](O)C(C)(C)[C@@H]4[C@H](O)C[C@]23C)O1 [PCM-0215005] | -2.8% | 
74 | CC(=O)OCC1=C(C(=O)O)N2C(=O)[C@@H](N)[C@H]2SC1 [PCM-0215190] | -8.5% | 
75 | N#CC(C#N)=NNc1ccc(OC(F)(F)F)cc1 [PCM-0215645] | 52.5% | 
